We go through 1 compound from paper PMC10386886, “First-in-class multifunctional TYMS nonclassical antifolate inhibitor with potent in vivo activity that prolongs survival” (JCI Insight, 2023).

One data set has as its system PANC-1 cells. Nature of the data set: MTS viability assay, PANC-1. In kind it is cell-based. Conditions: Homo sapiens, 72-hour drug incubation, Figure 1C.
The next data set has as its system MIA PaCa-2 cells. Kind of data set: MTS viability assay, MIA PaCa-2. The data set is classed as cell-based. Conditions: Homo sapiens, 72-hour drug incubation, Figure 1C. Here is the method: (§1) Cells were harvested after 72 hours, and cell pellets were stored at –80°C. […] After 72 hours, cell viability was assessed by reduction of MTS using Cell Titer 96 R Aqueous One Solution Cell Proliferation Assay Kit (Promega, catalog G8081), following manufacturer’s recommendations. […] was measured on a SpectraMax M3 (Molecular Devices). Data were plotted in GraphPad Prism 9 to determine GI50 concentration. Chemical synthesis details, including characterization of each compound, can be found in the Supplemental section associated with this publication.

The next data set concerns CM cells. Nature of the data set: MTS viability assay, CM. As to conditions: 72-hour drug incubation, Figure 1C. In kind it is cell-based.
A further data set concerns BON cells. Kind of data set: MTS viability assay, BON. The data set is classed as cell-based. Conditions: 72-hour drug incubation, Figure 1C.
Data set [1] deals with H1048 small cell lung cancer cell line. Kind of data set: Viability assay, H1048. The data set is classed as cell-based. Conditions: Homo sapiens, NCI-H1048; Supplemental Figure 1B.
Experimental: H1048, Colo320, H630 and CCD18Co cells were purchased from ATCC. Cells were grown in RPMI
1640 supplemented with 5 U/ml Penicillin/Streptomycin and 10% fetal bovine serum at a constant
temperature of 37 °C in a humidified atmosphere of 5% carbon dioxide and were routinely tested for
mycoplasma contamination.
For GI50 determination, 3000 Colo320, H630 and CCD18Co cells per well were plated in 96 well plates
hours, cell viability was assessed by reduction of MTT (3-(4,5- dimethylthiazol-2-yl)-2,5-diphenyltetrazolium bromide) using MTT Reagent (Invitrogen, Cat # M6494), following manufacturer’s
recommendations. Chemiluminescent output (integration time 1000 ms) was measured on a
SpectraMax M3 (Molecular Devices). Data was plotted in GraphPad Prism 9 to determine GI50
The test system of data set [2] is TYMS. Nature of the data set: Immunoblot of TYMS levels in treated PANC-1 cells. As to conditions: PANC-1, 72 hours, Figure 1D. The data set is classed as cell-based. How it is done:
as §1
A total of 20 μg of total protein lysate was loaded per lane of 10% Tris Glycine Gel (Invitrogen, catalog EC6076). SDS-PAGE was run at 150 V for 1.5 to 2 hours. Proteins were transferred to nitrocellulose membranes using iBlot (Invitrogen, catalog IB3011002). Membranes were blocked with 5% nonfat dry milk (Lab Scientific, catalog M0841) in Tris-buffered saline supplemented with Tween 20 (0.1%) (TBS-T) for 45–60 minutes at room temperature (RT). […] Signal was detected using West Pico Plus chemiluminescence substrate (Thermo Fisher Scientific, catalog 34580) following manufacturer’s recommendations. […] For protein-level quantification relative to loading control, densitometric analysis was performed by ImageJ software (NIH).

Data set [3] relates to PANC-1 and MIA PaCa-2 cells. Nature of the data set: Cell count assay for acquired resistance. The data set is classed as cell-based. As to conditions: constant 10 μM.
Experimental: 500000 PANC-1 and MiaPaCa- 2 cells were plated in 75 cm2 flasks in DMEM high glucose
supplemented with 5 U/ml Penicillin/Streptomycin and 10% fetal bovine serum. Cells were treated with
Once a week for 7 weeks, cells were trypsinized with Trypsin-
EDTA 0.05% (Gibco) and counted using Cellometer Auto T4 (Nexcelom Bioscience). 500000 cells were
re-seeded in a new 75 cm2 flask in the appropriate treatment. Data was plotted in GraphPad Prism 9.
The test system of data set [4] is 5-FU-resistant PANC-1 cells. Nature of the data set: Clonability assay in 5-FU-resistant PANC-1 cells. The data set is classed as cell-based. As to conditions: 8.35 μM 19-S or 6.5 μM 5-FU, 21 days.
Experimental: 500 PANC- 1 cells resistant to 6.5 µM 5-FU cells were seeded in 6 well plates by triplicate in media
After 21 days, cells were washed with PBS, fixed with Methanol for 20 minutes and stained with
1% Crystal violet (in PBS) for 20 minutes. After extensive washing, plates were let dry and colonies
were counted and plotted in GraphPad Prism 9. Images were taken using scanner Epson Perfection
Data set [5] deals with Luc-PANC-1 xenograft tumors. Kind of data set: Luc-PANC-1 subcutaneous xenograft tumor model. In kind it is in vivo. As to conditions: 19-S vs 5-FU comparison, Supplemental Figure 6. The source says:
(§2) In the subcutaneous tumor model, the resulting Luc-PANC-1 xenograft tumors were monitored by direct tumor measurements and bioluminescence photon flux that is proportional to tumor size. […] Treatment was initiated 30 days after Luc-PANC-1 cell line subcutaneous injections (5 × 10^6 cells), when tumors reached 100 mm^3 in volume, generating a bioluminescence photon flux of 3 × 10^9 to 4 × 10^9 photons/s. […] Tumors from both treatment groups were excised, and the tumor mass was weighed (Figure 2E).
Luc-PANC-1 (5 × 10^6) and Luc-CM (0.5 × 10^6) cells were resuspended in 200 μL of PBS and injected subcutaneously or IP, respectively, into 6- to 8-week-old NSG mice. Tumor-bearing mice were imaged using Xenogen IVIS Lumina Bioluminescence Imaging System (PerkinElmer) every week after cell injection. […] For all animals, body weight was recorded weekly, and Luc-PANC-1 tumor volume was measured weekly with a caliper. For scheduled sacrifice experiments, animals were euthanized after 4 weeks of treatment. […] Tumor volume was calculated as volume = 0.52(length × width^2).
Prior to bioluminescence imaging the region where tumors were located was shaved. […] Following the injection of the D-luciferin substrate mice, were imaged using the Xenogen IVIS Lumina Bioluminescence Imaging System (PerkinElmer). The peak of luciferase photon flux was recorded 6 minutes after injection of the D-luciferin substrate. The total photon flux was analyzed and restricted to tumor region of interest using Living Image v2.60.1 software (Imaging Systems).

In data set [6] the test system is TYMS. Nature of the data set: TYMS levels in Luc-PANC-1 xenograft tumors (immunoblot). In kind it is in vivo, mouse. As to conditions: 25 mg/kg daily IP, 5 consecutive days.
Excerpt: as §2
A small piece of frozen tumor (stored at -80 °C) in RIPA buffer with phosphatase and proteinase inhibitors (Santa Cruz, sc-24948) was homogenized using Omni general laboratory homogenizer (GLH). Tumor was then centrifuged for 20 min at 12000 rpm and 4 °C to obtain whole -cell lysates that was transferred to a new tube. Protein concentration was measured using Bradford Assay and 20 µg of total protein lysate was loaded as described in Methods.
Tritium based TYMS catalytic activity assay
The catalytic activity of TYMS was determined by measuring the release of [3H] from [5-3H]dUMP (ViTrax, Cat # VT122) resulting from the conversion of dUMP to dTMP as previously described (2, 3).
The reaction conditions were optimized to determine the amount of TYMS protein needed to establish […]

Data set [7] is described as follows: in vivo. Conditions: NSG, mouse, ip.
Experimental: Maximum tolerated dose (MTD)
(§3) experiment) or 5, 10, 25 or 50 mg/kg of 5-FU daily during 5 consecutive days. After 3 treatment cycles,
(§4) animals rested (no treatment) for one more week before euthanasia. Body weight and physical status
(§5) of all mice were closely monitored. Tissues were collected and fixed in alcoholic formalin to test for
(§6) daily during 5 consecutive days for 3 weeks. After 3 treatment cycles, animals rested (no treatment) for
(§7) one more week before euthanasia. Body weight and physical status of all mice were closely monitored.
(§8) Tissues were collected and fixed in alcoholic formalin to test for toxicity.
(§9) Specimens were fixed in alcoholic formalin for 48h and then transferred to 70% ethanol, processed and
(§10) embedded in paraffin. Tissues were serially sectioned and stained by conventional H&E. Slides were
Data set [8] is described as follows: in vivo. Conditions: FVB/129/Sv, mouse, ip.
Experimental: Animals received 4 treatment cycles and were then monitored once off treatment until survival endpoint.
Maximum tolerated dose (MTD)
as §3, §4, §5, §6, §7, §8, §9, §10

For the compound `O=c1[nH]cc(F)c(=O)[nH]1` [Compound 5-FU, 5-fluorouracil], the GI50 was found to be 15.7 µM in the data set on PANC-1 cells; 20.4 µM with MIA PaCa-2 cells; 14.8 µM with CM cells; 7.47 µM with BON cells; 3.63 µM in data set [1]. Besides, inhibition in the data set on BON cells was half-maximal at 7.1 µM (IC50). Further, in the data set on TYMS [2], the “TYMS protein expression after treatment” value was 3 fold. In addition, the “Effect on cell counts after 1 week” value in data set [3] is listed as “potent cytotoxic effect”. Also, in data set [3], the “Viable cells after 4 weeks of treatment” value is given as “remained detectible”. In addition, the Colony formation result in data set [4] was “colonies were observed”. The “Tumor volume compared with control mice” value in [5] is “significant reduction in tumor volume”. For the same compound, the “TYMS protein level in tumors” value in the data set with TYMS [6] is on record as “higher than TYMS protein level in vehicle-treated controls”. Further, the MTD at 3 treatment cycles (5 consecutive days of daily dosing each) in “in vivo [7]” and in the data set “in vivo [8]” was 25 mg/kg each time.
